Assay results published in US6346543B1, “Use of a taxoid to treat abnormal cell proliferation in the brain” (priority 1998, dated 2002).
“And” between values parts separate entries of the source, which are not always exact repeats. Identical values can stand only once.

Test system: intracranially implanted human glioblastoma SF-295
Test: Antitumor activity against intracranially implanted SF-295 glioblastoma in NCr-nu mice (RP-38)
Assay type: in vivo
Details: for DAYS OF DEATH: individual animals
Description: Four studies were initiated to evaluate the response of U251 and SF-295 glioblastomas to treatment with product (Ia). In the two studies, U251 and SF-295 glioblastomas were initiated from intracranially implanted cells at a volume of 10^6 cells per mouse. The treatment schedule of the intracranially implanted U251 glioblastoma cells was iv, once daily, every sixth day for three treatments (q6d×3), beginning on day four post-implant. The treatment schedule of the intracranially implanted SF-295 glioblastoma cells was iv, once daily, every fourth day for three treatments (q4d×3), beginning on day two post-implant. For the intracranially implanted studies, the compounds were evaluated based on their ability to increase the life span of the animals. The positive control used for both of these tumor models was nitrosourea.
In these experiments, general DCTD, NCI techniques and procedures for in vivo efficacy studies were modified for special application (In Vivo Cancer Models, NIH Publication No. 84-2635, 1984). These studies were conducted in approved facilities (AAALAC Registration No. 000643, AALAS Membership No. 840723001, USDA Registration No. 64-R-001, OPPR, PHS, NIH, AWA, Assurance No. A3046-01). These facilities are ISO 9001 certified. The oversight committee was the Southern Research Institutional Animal Care and Use Committee; the protocol used was IACUC No. 96-8-50.
Product (Ia) was prepared in 5% ethanol, 5% tween 80, 90% D5W
Nitrosourea was prepared in 2% ethanol, 98% physiological saline.
Product (Ia) was administered in 0.4 ml/mouse based on a total body weight average.
Nitrosourea was administered 0.1 ml/10 g of body weight.
Any intracranially implanted animal that appeared to be moribund was euthanized for humane purposes. Since efficacy studies fall within this category of basic research, experiment termination was based on resultants that were determined to be optimal.
Six to eight week old athymic NCr-nu female mice were used for the intracranially implanted U251 trials. Six to eight week old athymic NCr-nu male mice were used for the intracranially implanted SF-295 trials.
As previously mentioned, this experiment was designed to evaluate the activity of product (Ia) against intracranially U251 and SF-295 glioblastomas in athymic MCr-nu mice. The dosages for product (Ia) were 30, 20 and 13.4 mg/kg/dose. For the two intracranially implanted experiments, cells were prepared at a concentration of 3.33×10^7 cells per ml of media and injected at a volume of 0.03 ml per mouse. The cells were injected into the cerebrum to the right of the midline with a 25 gauge, ⅜ inch, stainless steel needle. Cultured cells were used for the U251 experiment (RP-36). The treatment schedule was q6d×3, iv, beginning on day four, post-implant. A tumor brei, made from solid tumor, was used for the SF-295 experiment (RP-38). The treatment schedule was q4d×3, iv, beginning on day two, post-implant. Nitrosourea was given in each experiment for comparative purposes because of its known activity against CNS tumors. The dosages were 27, 18 and 12 mg/kg/dose and the treatment schedule was the same as the treatment schedule for product (Ia) in each experiment.

[1] = 13.4 mg/kg/dose IV Q4D×3(2), listed as product (Ia)

CO[C@H]1C(=O)[C@]2(C)[C@@H](OC)C[C@H]3OC[C@@]3(OC(C)=O)[C@H]2[C@H](OC(=O)c2ccccc2)[C@]2(O)C[C@H](OC(=O)[C@H](O)[C@@H](NC(=O)OC(C)(C)C)c3ccccc3)C(C)=C1C2(C)C [Product (Ia), 4α-acetoxy-2α-benzoyloxy-5β, 20-epoxy-1β-hydroxy-7β, 10β-dimethoxy-9-oxo-11-taxen-13α-yl (2R,3S)-3 tert-butoxycarbonylamino-2-hydroxy-3-phenylpropionate]
68 DAY SURV./TOTAL (13.4 mg/kg/dose IV Q4D×3(2)): 1/10
% ILS (13.4 mg/kg/dose IV Q4D×3(2)): +81%
MEDIAN DAY OF DEATH (13.4 mg/kg/dose IV Q4D×3(2)): 29.0 days
MEAN ANIMAL WEIGHT (13.4 mg/kg/dose IV Q4D×3(2), day 2): 25 GRAMS
MEAN ANIMAL WEIGHT (13.4 mg/kg/dose IV Q4D×3(2), day 5): 24 GRAMS
MEAN ANIMAL WEIGHT (13.4 mg/kg/dose IV Q4D×3(2), day 8): 23 GRAMS
MEAN ANIMAL WEIGHT (13.4 mg/kg/dose IV Q4D×3(2), day 13): 22 GRAMS
MEAN ANIMAL WEIGHT (13.4 mg/kg/dose IV Q4D×3(2), day 15): 20 GRAMS
MEAN ANIMAL WEIGHT (13.4 mg/kg/dose IV Q4D×3(2), day 19): 21 GRAMS
MEAN ANIMAL WEIGHT (13.4 mg/kg/dose IV Q4D×3(2), day 22): 22 GRAMS
MEAN ANIMAL WEIGHT (13.4 mg/kg/dose IV Q4D×3(2), day 26): 21 GRAMS
MEAN ANIMAL WEIGHT (13.4 mg/kg/dose IV Q4D×3(2), day 29): 22 GRAMS
MEAN ANIMAL WEIGHT (13.4 mg/kg/dose IV Q4D×3(2), day 33): 22 GRAMS
MEAN ANIMAL WEIGHT (13.4 mg/kg/dose IV Q4D×3(2), day 37): 26 GRAMS
MEAN ANIMAL WEIGHT (13.4 mg/kg/dose IV Q4D×3(2), day 40): 22 GRAMS
MEAN ANIMAL WEIGHT (13.4 mg/kg/dose IV Q4D×3(2), day 43): 27 GRAMS
DAYS OF DEATH (13.4 mg/kg/dose IV Q4D×3(2)): 34 day and 41 day and 25 day (2×) and 29 day (3×) and 30 day and 32 day
68 DAY SURV./TOTAL [1]: one 68-day survivor out of ten animals
% ILS [1]: 81%
mean weight loss through the treatment period (20 mg/kg dose iv q4d×3): 6 g
68 DAY SURV./TOTAL (20.0 mg/kg/dose IV Q4D×3(2)): 0/10
% ILS (20.0 mg/kg/dose IV Q4D×3(2)): +94%
MEDIAN DAY OF DEATH (20.0 mg/kg/dose IV Q4D×3(2)): 31.0 days
MEAN ANIMAL WEIGHT (20.0 mg/kg/dose IV Q4D×3(2), day 2): 25 GRAMS
MEAN ANIMAL WEIGHT (20.0 mg/kg/dose IV Q4D×3(2), day 5): 24 GRAMS
MEAN ANIMAL WEIGHT (20.0 mg/kg/dose IV Q4D×3(2), day 8): 21 GRAMS
MEAN ANIMAL WEIGHT (20.0 mg/kg/dose IV Q4D×3(2), day 13): 19 GRAMS
MEAN ANIMAL WEIGHT (20.0 mg/kg/dose IV Q4D×3(2), day 15): 18 GRAMS
MEAN ANIMAL WEIGHT (20.0 mg/kg/dose IV Q4D×3(2), day 19): 19 GRAMS
MEAN ANIMAL WEIGHT (20.0 mg/kg/dose IV Q4D×3(2), day 22): 21 GRAMS
MEAN ANIMAL WEIGHT (20.0 mg/kg/dose IV Q4D×3(2), day 26): 22 GRAMS
MEAN ANIMAL WEIGHT (20.0 mg/kg/dose IV Q4D×3(2), day 29): 19 GRAMS
MEAN ANIMAL WEIGHT (20.0 mg/kg/dose IV Q4D×3(2), day 33): 23 GRAMS
MEAN ANIMAL WEIGHT (20.0 mg/kg/dose IV Q4D×3(2), day 37): 29 GRAMS
MEAN ANIMAL WEIGHT (20.0 mg/kg/dose IV Q4D×3(2), day 40): 29 GRAMS
MEAN ANIMAL WEIGHT (20.0 mg/kg/dose IV Q4D×3(2), day 43): 29 GRAMS
DAYS OF DEATH (20.0 mg/kg/dose IV Q4D×3(2)): 33 day (2×) and 37 day and 54 day and 13 day (2×) and 16 day and 31 day (3×)
% ILS (20.0 mg/kg/dose IV Q4D×3(2), listed as product (Ia)): 94%
mean weight loss through the treatment period (30 mg/kg dose iv q4d×3): 7 g
68 DAY SURV./TOTAL (30.0 mg/kg/dose IV Q4D×3(2)): 0/10
% ILS (30.0 mg/kg/dose IV Q4D×3(2)): −9%
MEDIAN DAY OF DEATH (30.0 mg/kg/dose IV Q4D×3(2)): 14.5 days
MEAN ANIMAL WEIGHT (30.0 mg/kg/dose IV Q4D×3(2), day 2): 25 GRAMS
MEAN ANIMAL WEIGHT (30.0 mg/kg/dose IV Q4D×3(2), day 5): 23 GRAMS
MEAN ANIMAL WEIGHT (30.0 mg/kg/dose IV Q4D×3(2), day 8): 18 GRAMS
MEAN ANIMAL WEIGHT (30.0 mg/kg/dose IV Q4D×3(2), day 13): 18 GRAMS
MEAN ANIMAL WEIGHT (30.0 mg/kg/dose IV Q4D×3(2), day 15): 19 GRAMS
MEAN ANIMAL WEIGHT (30.0 mg/kg/dose IV Q4D×3(2), day 19): 19 GRAMS
MEAN ANIMAL WEIGHT (30.0 mg/kg/dose IV Q4D×3(2), day 22): 21 GRAMS
MEAN ANIMAL WEIGHT (30.0 mg/kg/dose IV Q4D×3(2), day 26): 21 GRAMS
MEAN ANIMAL WEIGHT (30.0 mg/kg/dose IV Q4D×3(2), day 29): 19 GRAMS
MEAN ANIMAL WEIGHT (30.0 mg/kg/dose IV Q4D×3(2), day 33): 20 GRAMS
MEAN ANIMAL WEIGHT (30.0 mg/kg/dose IV Q4D×3(2), day 37): 18 GRAMS
MEAN ANIMAL WEIGHT (30.0 mg/kg/dose IV Q4D×3(2), day 40): 21 GRAMS
MEAN ANIMAL WEIGHT (30.0 mg/kg/dose IV Q4D×3(2), day 43): 17 GRAMS
DAYS OF DEATH (30.0 mg/kg/dose IV Q4D×3(2)): 40 day and 41 day and 47 day and 11 day and 13 day (2×) and 14 day (2×) and 15 day and 30 day
activity against intracranially implanted SF-295 glioblastoma (iv q4d×3): quite active
MTD (iv q4d×3, SF-295 experiment RP-38): 13.4 mg/kg/dose
